Nc1cccc2cccc(N)c12
solubility (mole fraction)
Settings	273.15 K	278.15 K	283.15 K	288.15 K	293.15 K	298.15 K	303.15 K	308.15 K	313.15 K
in acetonitrile	0.0518	0.065	0.0798	0.0966	0.116	0.139	0.166	0.197	0.231
in ethyl acetate	0.0765	0.091	0.107	0.127	0.152	0.179	0.212	0.252	0.295
in isopropanol	0.0221	0.0277	0.0338	0.0407	0.0491	0.0588	0.0688	0.0807	0.0936
in methanol	0.018	0.0219	0.0267	0.0327	0.0391	0.0467	0.0551	0.0647	0.0754
in n-propanol	0.0385	0.0484	0.0594	0.0718	0.0868	0.103	0.121	0.142	0.166
in toluene	0.0423	0.0512	0.0654	0.0803	0.0966	0.117	0.138	0.163	0.189

Nc1cccc2c(N)cccc12
solubility (mole fraction)
Settings	273.15 K	278.15 K	283.15 K	288.15 K	293.15 K	298.15 K	303.15 K	308.15 K	313.15 K
in acetonitrile	0.00186	0.00238	0.00305	0.00382	0.00477	0.00577	0.00695	0.00834	0.00983
in ethyl acetate	0.00404	0.00487	0.00569	0.00662	0.00759	0.00869	0.00992	0.0113	0.0128
in isopropanol	0.000471	0.000564	0.000684	0.000807	0.000947	0.0011	0.00126	0.00144	0.00163
in methanol	0.00112	0.00132	0.00154	0.00181	0.00209	0.0024	0.00278	0.0032	0.00369
in n-propanol	0.00064	0.000762	0.000895	0.00105	0.00122	0.00142	0.00165	0.00192	0.00224
in toluene	0.000262	0.000345	0.000445	0.00056	0.000689	0.00084	0.00102	0.0012	0.0014

Source: BigSolDB 2.1
